Emax and EC50 data for 27 compounds are collected here from patent publication US20250340574A1, “MODULATORS OF CYSTIC FIBROSIS TRANSMEMBRANE CONDUCTANCE REGULATOR” (Vertex Pharmaceuticals Incorporated, priority 2022, published 2025).

The term EC50 denotes the concentration at which the effect is half-maximal.

The target in this test is T1, CFTR (F508del/MF-HBE cells) (Homo sapiens, UniProt P13569, DEL508-508).
T1 construct: human bronchial epithelial (HBE) cells derived from CF subjects heterozygous for F508del and a minimal function CFTR mutation (F508del/MF-HBE); endogenous in cells; host or cells: Primary human bronchial epithelial cells from CF subjects (F508del/MF genotype), differentiated at an air-liquid interface
T1 sequence (P13569 with tags, fused parts or gaps DEL508-508): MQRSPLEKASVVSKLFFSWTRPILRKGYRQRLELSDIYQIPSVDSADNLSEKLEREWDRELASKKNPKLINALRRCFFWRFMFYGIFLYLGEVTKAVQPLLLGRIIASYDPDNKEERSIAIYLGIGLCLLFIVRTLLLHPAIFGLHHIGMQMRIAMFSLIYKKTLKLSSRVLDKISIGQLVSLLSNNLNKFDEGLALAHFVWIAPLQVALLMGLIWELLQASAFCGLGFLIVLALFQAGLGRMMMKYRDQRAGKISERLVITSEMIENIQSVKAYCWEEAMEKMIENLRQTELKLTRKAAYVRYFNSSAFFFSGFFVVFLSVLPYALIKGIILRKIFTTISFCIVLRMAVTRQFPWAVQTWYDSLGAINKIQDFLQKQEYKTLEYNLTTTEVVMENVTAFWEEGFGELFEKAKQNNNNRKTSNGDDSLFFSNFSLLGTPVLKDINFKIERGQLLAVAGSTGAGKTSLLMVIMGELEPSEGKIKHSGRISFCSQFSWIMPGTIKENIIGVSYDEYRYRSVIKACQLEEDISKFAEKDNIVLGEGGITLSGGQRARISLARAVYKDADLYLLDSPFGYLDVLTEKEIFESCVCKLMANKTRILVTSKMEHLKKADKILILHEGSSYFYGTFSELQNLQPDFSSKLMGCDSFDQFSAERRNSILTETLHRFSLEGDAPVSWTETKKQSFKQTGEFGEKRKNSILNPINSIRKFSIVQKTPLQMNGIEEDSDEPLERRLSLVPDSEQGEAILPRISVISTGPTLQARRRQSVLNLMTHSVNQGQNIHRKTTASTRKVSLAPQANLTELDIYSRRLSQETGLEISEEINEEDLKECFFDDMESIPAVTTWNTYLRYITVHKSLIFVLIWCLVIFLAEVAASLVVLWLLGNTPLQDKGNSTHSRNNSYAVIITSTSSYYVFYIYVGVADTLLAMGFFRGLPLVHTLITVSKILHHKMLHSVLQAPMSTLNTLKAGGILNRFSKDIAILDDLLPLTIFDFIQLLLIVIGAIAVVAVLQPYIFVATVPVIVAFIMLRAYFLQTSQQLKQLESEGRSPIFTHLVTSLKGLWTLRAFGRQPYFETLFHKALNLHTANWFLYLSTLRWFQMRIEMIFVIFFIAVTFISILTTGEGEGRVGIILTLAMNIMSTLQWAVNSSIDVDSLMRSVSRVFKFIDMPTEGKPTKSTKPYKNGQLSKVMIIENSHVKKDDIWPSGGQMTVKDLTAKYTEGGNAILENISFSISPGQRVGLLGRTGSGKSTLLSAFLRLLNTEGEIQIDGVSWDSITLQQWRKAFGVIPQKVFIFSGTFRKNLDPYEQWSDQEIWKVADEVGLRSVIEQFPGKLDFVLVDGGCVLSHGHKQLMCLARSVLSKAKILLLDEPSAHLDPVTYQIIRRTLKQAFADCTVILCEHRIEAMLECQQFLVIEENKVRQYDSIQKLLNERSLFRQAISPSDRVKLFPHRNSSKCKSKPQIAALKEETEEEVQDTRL
The experiment in a line: Ussing chamber assay of CFTR-mediated short-circuit currents, Assay A (0.1 μM to 25 μM, 6 concentrations). Type of test: cell-based. As to conditions: with 33 nM potentiator and 18 μM Tezacaftor, 20% human serum; for Emax: 18-24 hours, read-out: A Max activity (%). As to the method:
Ussing chamber experiments were performed using human bronchial epithelial (HBE) cells derived from CF subjects heterozygous for F508del and a minimal function CFTR mutation (F508del/MF-HBE) and cultured as previously described (Neuberger T, Burton B, Clark H, Van Goor F Methods Mol Biol 2011:741:39-54). After four days the apical media was removed, and the cells were grown at an air liquid interface for >14 days prior to use.
To isolate the CFTR-mediated short-circuit (ISC) current, F508del/MF-HBE grown on Costar® Snapwell™ cell culture inserts were mounted in an Ussing chamber and the transepithelial ISC was measured under voltage-clamp recording conditions (Vhold=0 mV) at 37° C. The basolateral solution contained (in mM) 145 NaCl, 0.83 K2HPO4, 3.3 KH2PO4, 1.2 MgCl2, 1.2 CaCl2, 10 Glucose, 10 HEPES (pH adjusted to 7.4 with NaOH) and the apical solution contained (in mM) 145 NaGluconate, 1.2 MgCl2, 1.2 CaCl2, 10 glucose, 10 HEPES (pH adjusted to 7.4 with NaOH) and 30 μM amiloride to block the epithelial sodium channel. Forskolin (20 μM) was added to the apical surface to activate CFTR, followed by apical addition of a CFTR inhibitor cocktail consisting of BPO, GlyH-101, and CFTR inhibitor 172 (each at 20 μM final assay concentration) to specifically isolate CFTR currents. The CFTR-mediated ISC (μA/cm^2) for each condition was determined from the peak forskolin response to the steady-state current following inhibition.
The activity of the CFTR corrector compounds on the CFTR-mediated ISC was determined in Ussing chamber studies as described above. The F508del/MF-HBE cell cultures were either incubated with the corrector compounds at a range of concentrations in combination with 33 nM (6R,12R)-17-amino-12-methyl-6,15-bis(trifluoromethyl)-13,19-dioxa-3,4,18-triazatricyclo[12.3.1.12,5]nonadeca-1(18),2,4,14,16-pentaen-6-ol and 18 μM Tezacaftor or were incubated with the corrector compounds at a single fixed concentration of 1 μM in combination with 44 nM (6R,12R)-17-amino-12-methyl-6,15-bis(trifluoromethyl)-13,19-dioxa-3,4,18-triazatricyclo[12.3.1.12,5]nonadeca-1(18),2,4,14,16-pentaen-6-ol and 18 μM Tezacaftor for 18-24 hours at 37° C. and in the presence of 20% human serum. The concentration of corrector compounds with 44 nM or 33 nM (6R,12R)-17-amino-12-methyl-6,15-bis(trifluoromethyl)-13,19-dioxa-3,4,18-triazatricyclo[12.3.1.12,5]nonadeca-1(18),2,4,14,16-pentaen-6-ol and 18 μM Tezacaftor during the 18-24 hours incubations was kept constant throughout the Ussing chamber measurement of the CFTR-mediated ISC to ensure compounds were present throughout the entire experiment. The efficacy and potency of the putative F508del correctors was compared to that of the known Vertex corrector, (14S)-8-[3-(2-{Dispiro[2.0.2.1]heptan-7-yl}ethoxy)-1H-pyrazol-1-yl]-12,12-dimethyl-2λ^6-thia-3,9,11,18,23-pentaazatetracyclo[17.3.1.111,14.05,10]tetracosa-1(22),5,7,9,19(23),20-hexaene-2,2,4-trione, in combination with 18 μM Tezacaftor and 1 μM Ivacaftor.
• Assay A: 0.1 μM to 25 μM, 6 concentrations • Assay B: 0.00001 μM to 25 μM, 12 concentrations • Assay C: 0.026 μM to 25 μM, 6 concentrations • Assay D: Activity at single concentration of 1 μM

Turning to `Cc1cccc(C)c1-c1cc2nc(n1)NS(=O)(=O)c1cccc(c1)C(=O)N(Cc1nc3c(cc1F)cc(C(C)C)n3C)[C@@H](COC1CCC1)CO2` (stereo in doubt) [Compound I-84], the Emax is more than 60% and the EC50 is less than 1 µM.

`Cc1cccc(C)c1-c1cc2nc(n1)NS(=O)(=O)c1cccc(c1)C(=O)N(Cc1nc3c(cc1F)cc(C(C)C)n3C)[C@H](CC1(C)CC1)CO2` [Compound I-80]: the Emax is more than 60% and the EC50 is less than 1 µM.

In the case of `Cc1cccc(C)c1-c1cc2nc(n1)NS(=O)(=O)c1cccc(c1)C(=O)N(Cc1cnc3oc(C4CC4)cc3n1)[C@H](CCC1(C)CCC1)CO2` [Compound I-47], the Emax is more than 60% and the EC50 was less than 1 µM.

As to `Cc1cccc(C)c1-c1cc2nc(n1)NS(=O)(=O)c1cccc(c1)C(=O)N(Cc1cnc3oc(C(C)C)c(C)c3n1)[C@H](CCC(C)(C)C)CO2` [Compound I-11], the Emax is more than 60% and the EC50 is less than 1 µM.

For the compound `Cc1cccc(C)c1-c1cc2nc(n1)NS(=O)(=O)c1cccc(c1)C(=O)N(Cc1cnc3oc(C(C)C)cc3n1)[C@H](CCC(C)(C)F)CO2` (single isomer, unassigned) [Compound I-36], the Emax was more than 60% and the EC50 was less than 1 µM.

`Cc1cccc(C)c1-c1cc2nc(n1)NS(=O)(=O)c1cccc(c1)C(=O)N(Cc1cnc3oc(C(C)C)c(C)c3n1)[C@H](CC1CCCCC1)CO2` [Compound I-12]: the Emax was more than 60% and the EC50 is less than 1 µM.

In the case of `Cc1cccc(C)c1-c1cc2nc(n1)NS(=O)(=O)c1cccc(c1)C(=O)N(Cc1cnc3oc(C4CC4)cc3n1)[C@H](CC(C)(C)F)CO2` [Compound I-51], the Emax is more than 60% and the EC50 was less than 1 µM.

Take `Cc1cccc(C)c1-c1cc2nc(n1)NS(=O)(=O)c1cccc(c1)C(=O)N(Cc1cnc3oc(C(C)C)cc3n1)[C@H](CCC(C)C)CO2` [Compound I-2]: the Emax is more than 60% and the EC50 is less than 1 µM.

In the case of `Cc1cccc(C)c1-c1cc2nc(n1)NS(=O)(=O)c1cccc(c1)C(=O)N(Cc1cnc3oc(C(C)C)c(C)c3n1)[C@H](CCC1(C)CCC1)CO2` [Compound I-34], the Emax was more than 60% and the EC50 is less than 1 µM.

Regarding `Cc1cccc(C)c1-c1cc2nc(n1)NS(=O)(=O)c1cccc(c1)C(=O)N(Cc1cnc3oc(C(C)C)c(C)c3n1)[C@H](CC1CCCC1)CO2` [Compound I-64], the Emax is more than 60% and the EC50 is less than 1 µM.

`Cc1cccc(C)c1-c1cc2nc(n1)NS(=O)(=O)c1cccc(c1)C(=O)N(Cc1cnc3oc(C(C)C)cc3n1)[C@H](CC1C3(CC3)C13CC3)CO2` [Compound I-101]: the Emax is more than 60% and the EC50 was less than 1 µM.

As to `Cc1cccc(C)c1-c1cc2nc(n1)NS(=O)(=O)c1cccc(c1)C(=O)N(Cc1cnc3oc(C(C)C)c(C#N)c3n1)[C@H](CC1(C)CC1)CO2` [Compound I-53, 2-[[(11R)-6-(2,6-dimethylphenyl)-11-[(1-methylcyclopropyl)methyl]-2,2,13-trioxo-9-oxa-2λ^6-thia-3,5,12,19-tetrazatricyclo[12.3.1.14,8]nonadeca-1(18),4(19),5,7,14,16-hexaen-12-yl]methyl]-6-isopropyl-furo[2,3-b]pyrazine-7-carbonitrile], the Emax is more than 60% and the EC50 is less than 1 µM.

As to `Cc1cccc(C)c1-c1cc2nc(n1)NS(=O)(=O)c1cccc(c1)C(=O)N(Cc1nc3cc(C(C)C)oc3cc1F)[C@H](CC(C)(C)C)CO2` [Compound I-63], the Emax is more than 60% and the EC50 is less than 1 µM.

In the case of `Cc1cccc(C)c1-c1cc2nc(n1)NS(=O)(=O)c1cccc(c1)C(=O)N(Cc1cnc3oc(C(C)C)cc3n1)[C@H](CC1CCOCC1)CO2` [Compound I-30, (11R)-6-(2,6-dimethylphenyl)-12-[(6-isopropylfuro[2,3-b]pyrazin-2-yl)methyl]-2,2-dioxo-11-(tetrahydropyran-4-ylmethyl)-9-oxa-2λ^6-thia-3,5,12,19-tetrazatricyclo[12.3.1.14,8]nonadeca-1(18),4(19),5,7,14,16-hexaen-13-one], the Emax was 30 to 60% and the EC50 is less than 1 µM.

On to `Cc1cccc(C)c1-c1cc2nc(n1)NS(=O)(=O)c1cccc(c1)C(=O)N(Cc1cnc3c(n1)CC(C(C)C)O3)[C@H](CC1(C)CC1)CO2` (single isomer, unassigned) [III-14], for which the EC50 was less than 1 µM.

Regarding `Cc1cccc(C)c1-c1cc2nc(n1)NS(=O)(=O)c1cccc(c1)C(=O)N(Cc1cnc3oc(C(C)C)c(C)c3n1)[C@H](CCC(C)C)CO2` [Compound I-19], the Emax is more than 60% and the EC50 is less than 1 µM.

Take `Cc1cccc(C)c1-c1cc2nc(n1)NS(=O)(=O)c1cccc(c1)C(=O)N(Cc1cnc3oc(C(C)C)cc3n1)[C@H](CC(C)(C)F)CO2` [Compound I-35]: the Emax is more than 60% and the EC50 was less than 1 µM.

For the compound `Cc1cccc(C)c1-c1cc2nc(n1)NS(=O)(=O)c1cccc(c1)C(=O)N(Cc1nc3c(C(C)C)cccc3o1)[C@H](CC(C)(C)C)CO2` [III-7], the Emax was more than 60% and the EC50 was less than 1 µM.

Regarding `Cc1cccc(C)c1-c1cc2nc(n1)NS(=O)(=O)c1cccc(c1)C(=O)N(Cc1cnc3oc(C(C)C)c(C)c3n1)[C@@H](COC1CCC1)CO2` (stereo in doubt) [Compound I-93], the Emax was more than 60% and the EC50 is less than 1 µM.

Consider `Cc1cccc(C)c1-c1cc2nc(n1)NS(=O)(=O)c1cccc(c1)C(=O)N(Cc1cn3cccc(N)c3n1)[C@H](CC(C)(C)C)CO2` [III-12], for which the Emax is more than 60% and the EC50 was less than 1 µM.

Turning to `Cc1cccc(C)c1-c1cc2nc(n1)NS(=O)(=O)c1cccc(c1)C(=O)N(Cc1cnc3oc(C4CC4)cc3n1)[C@@H](COC1CCC1)CO2` (stereo in doubt) [Compound I-58], the Emax was more than 60% and the EC50 was less than 1 µM.

`Cc1cccc(C)c1-c1cc2nc(n1)NS(=O)(=O)c1cccc(c1)C(=O)N(Cc1cnc3cc(C(C)C)n(C)c3n1)[C@H](C[C@H]1CCCCO1)CO2` [Compound I-3]: the Emax is more than 60% and the EC50 was less than 1 µM.

For `Cc1cccc(C)c1-c1cc2nc(n1)NS(=O)(=O)c1cccc(c1)C(=O)N(Cc1cnc3cc(C(C)C)n(C)c3n1)[C@@H](CCC1(C)CC1)CO2` (stereo in doubt) [Compound I-72], the Emax is more than 60% and the EC50 was less than 1 µM.

In the case of `Cc1cccc(C)c1-c1cc2nc(n1)NS(=O)(=O)c1cccc(c1)CN(C(=O)c1cncc(N(C)C3CCC3)n1)[C@H](CC(C)(C)C)CO2` [II-36], the Emax is 30 to 60% and the EC50 lay within 1 to 3 µM.

For `Cc1cccc(C)c1-c1cc2nc(n1)NS(=O)(=O)c1cccc(c1)C(=O)N(Cc1cnc3oc(C(C)C)c(C)c3n1)[C@H](CC(C)(C)C)CO2` [Compound I-4], the Emax was more than 60% and the EC50 is less than 1 µM.

With `Cc1cccc(C)c1-c1cc2nc(n1)NS(=O)(=O)c1cccc(c1)C(=O)N(Cc1cnc3oc(C4CC4)cc3n1)[C@H](CC1C3(CC3)C13CC3)CO2` [Compound I-102], the Emax is more than 60% and the EC50 is less than 1 µM.

`Cc1cccc(C)c1-c1cc2nc(n1)NS(=O)(=O)c1cccc(c1)C(=O)N(Cc1cnc3nc(C(C)C)n(C)c3n1)[C@H](COC(C)C)CO2` [Compound I-90]: the Emax is more than 60% and the EC50 is less than 1 µM.
